{"source": "patent US11253592B2", "about": "“Water-soluble compounds with aggregation-induced emission characteristics” (THE HONG KONG UNIVERSITY OF SCIENCE AND TECHNOLOGY, priority 2017, dated 2022)", "key": {"HeLa cells [1]": {"system": "HeLa cells", "assay": "Photostability under continuous laser irradiation in stained cells", "assay_type": "cell-based", "details": "15 min continuous laser irradiation, λex 488 nm", "method": "For photostability studies, TTVP-labelled HeLa cells were imaged by a confocal microscope (Zeiss laser scanning confocal microscope LSM7 DUO) using ZEN 2009 software (Carl Zeiss). Conditions: for TTVP, excitation wavelength: 488 nm; for DiO, excitation wavelength: 488 nm (5% laser power).\nThe specificity of TTVP to plasma membrane was evaluated by co-staining with DiO, which is a commercially available bioprobe for plasma membrane. In this co-localization experiment, after incubating HeLa cells with DiO for 10 min, TTVP was added into the culture followed by culture shaking for a few seconds at room temperature. In order to accommodate the staining protocol of DiO, postwashing after cell staining was carried out. As shown in FIGS. 9A-9H, TTVP can selectively accumulate in the plasma membrane and emit strong red fluorescence. The well-merged images of TTVP and DiO indicate the high specificity of the compounds to the plasma membrane, and the Pearson's correlation coefficient is determined to be 89%. To assess the photostability of TTVP and DiO, continuous excitation and sequential scanning with confocal microscope were utilized."}, "[2]": {"assay": "ROS generation with H2DCF-DA indicator under white light", "details": "10 μM TTVP, 5 μM H2DCF-DA in PBS, white light 10 mW, within 60 s", "excerpt": "The strong absorption of TTVP in the visible light region permits utilization of visible light as the excitation light source for PDT processes. Visible light causes less damage to biological systems than UV light. The ROS generation efficiency of TTVP was initially determined by the use of H2DCF-DA as an indicator, which emits fluorescence with a “turn on” process triggered by ROS. As depicted in FIG. 11A, TTVP or H2DCF-DA alone was non-emissive or weekly emissive, and each fluorescence intensity remained almost constant within 60 s white light irradiation. […] The efficient ROS generation of TTVP could be attributed to both its small singlet-triplet energy gap (0.47 eV) and excellent monodispersity. The former favors the improvement of the yield of the triplet excited state, and the latter can enlarge contact area between TTVP and oxygen."}, "[3]": {"system": "plasma membrane of living HeLa cells", "assay": "Plasma membrane cell imaging by confocal microscopy", "assay_type": "cell-based", "method": "(§1) For cell imaging, cells were grown in a 35 mm Petri dish with a coverslip at 37° C. The live cells were incubated with a certain dye at a certain concentration for a certain time. After adding TTVP (500 nM), the Petri dish was shaken for a few seconds at room temperature, then the coverslip was removed. The TTVP-labelled cells were mounted and imaged using a laser scanning confocal microscope (LSM7 DUO) at 512 nm with 5% laser power (the scanning rate was 22.4 s per frame). The emission filter was 600-744 nm.\nAs a water-soluble NIR-emissive AIEgen, TTVP maintains an “off” state in an aqueous environment. As such, TTVP can serve as a “light-up” probe for bioimaging with minimal background interference from both free dyes and bio-substrate autofluorescence. In preliminary bioimaging experiments, cell imaging studies were conducted using HeLa cells as a cell model, and incubating 500 nM of TTVP for 10 min. […] The influence of incubation period was then investigated by utilizing a wash-free procedure with different staining times. […] The plasma membrane-staining ability of TTVP can be mainly attributed to its good hydrophilicity, which impedes the permeation of TTVP passing through the hydrophobic region of phospholipid bilayers. It is believed that the emitting moiety of TTVP is embedded within the hydrophobic region with low polarity, evidently giving fluorescent emission upon irradiation according to the restriction of intramolecular motions (RIM) mechanism of the AIE process (FIG. 6G). […] Additionally, ultrafast staining could result from the excellent monodispersity of TTVP in culture media of cells."}, "HeLa cells [4]": {"system": "HeLa cells", "assay": "MTT cytotoxicity under white light irradiation (PDT)", "assay_type": "cell-based", "details": "white light irradiation (around 10 mW) 10 min", "method": "For cytotoxicity studies relating to cytotoxicity of the present compounds to cancer cells under light irradiation, HeLa cells were seeded in 96-well plates (Costar, IL, USA) at a density of 6000-8000 cells/well. After overnight culturing, medium in each well were replaced by 100 μL fresh medium containing different concentrations of TTVP. After incubation for 3 s, plates containing HeLa cells were exposed to white light (around 10 mW) for 10 min, and another array of plates with cells were kept in dark as control. Then the plates were subjected to the same treatment as the biocompatibility test.\n(§2) Effective ROS generation of the present compounds in PDT applications was quantitatively evaluated on HeLa cells by a standard MTT assay. A dose-dependent toxicity was determined in both the absence and presence of white light irradiation. […] In comparison, HeLa cells retained 90% viability when they were incubated with 1 μM of TTVP in dark conditions. Furthermore, flow cytometric analysis using Annexin V-FITC/propidium iodide (PI) double staining was utilized to determine cell apoptosis (FIGS. 11C and 11D). […]"}, "[5]": {"assay": "DLS analysis of nanoaggregates in water/THF", "assay_type": "physicochemical", "details": "suspension with 90% fraction of THF", "method": "(§3) Dynamic light scattering analysis (DLS) and transmission electron microscope (TEM) measurements were performed to confirm the formation of aggregates upon the addition of THF into the TTVP aqueous solution. […] In the solid state, TTVP emitted at 705 nm with 2.7% of quantum yield and 0.92 ns of lifetime (FIGS. 4-5, Table 1)."}, "Water solubility": {"assay": "Water solubility", "assay_type": "physicochemical", "excerpt": "(§4) TTVP benefits from its positively charged amine and pyridinium salt having hydrophilic characteristic, as well as the small size of the hydrophobic moiety. […] The relatively long absorption wavelength can be attributed to its small HOMO-LOMO energy gap, which is caused by the strong electron donating-accepting interaction of the emitting center (FIGS. 3A-3C)."}, "HCT116 cells": {"system": "HCT116 cells", "assay": "Ultrafast wash-free plasma membrane imaging", "assay_type": "cell-based", "details": "500 nM, around 3 s", "method": "as §1\n(§5) Encouraged by the distinct advantages of TTVP for membrane-specific imaging, this ultrafast staining and wash-free cellular imaging protocol was further employed for staining other cell lines, including 293T, HCC827, HCT116, and MDCK2."}, "HCC827 cells": {"system": "HCC827 cells", "assay": "Ultrafast wash-free plasma membrane imaging", "assay_type": "cell-based", "details": "500 nM, around 3 s", "method": "as §1, §5"}, "293T cells": {"system": "293T cells", "assay": "Ultrafast wash-free plasma membrane imaging", "assay_type": "cell-based", "details": "500 nM, around 3 s", "method": "as §1, §5"}, "MDCK2 cells": {"system": "MDCK2 cells", "assay": "Ultrafast wash-free plasma membrane imaging", "assay_type": "cell-based", "details": "500 nM, around 3 s", "method": "as §1, §5"}, "HeLa cells [6]": {"system": "HeLa cells", "assay": "Flow cytometry Annexin V-FITC/PI double staining for apoptosis and necrosis", "assay_type": "cell-based", "details": "500 nM", "method": "Effective ROS generation of the present compounds in PDT applications was quantitatively evaluated on HeLa cells by a standard MTT assay. A dose-dependent toxicity was determined in both the absence and presence of white light irradiation. […] In comparison, HeLa cells retained 90% viability when they were incubated with 1 μM of TTVP in dark conditions. Furthermore, flow cytometric analysis using Annexin V-FITC/propidium iodide (PI) double staining was utilized to determine cell apoptosis (FIGS. 11C and 11D). […] It is worth noting that continuous light irradiation with strong power (around 18.5 times higher than that for cell imaging depicted in FIGS. 6A-6H and FIGS. 8A-8H) led to some changes of cells, for instance, TTVP can gradually enter the cells (FIGS. 11E-11I); the cell membrane morphology changed, and the formation of blebs on the plasma membrane was clearly observed, which is a sign of cell death. Those changes can be attributed to the fact that the ROS generated from TTVP considerably disrupts the rigidity and permeability of plasma membrane, and induces cancer cell death. FIGS. 12A, 12B, 12C, 12D, and 12E depict bright-field confocal images of HeLa cell stained with TTVP upon the increase of irradiation time. λex: 488 nm (20% laser power, 0.925 μW)."}, "[7]": {"assay": "Photophysical (optical) properties of TTVP", "assay_type": "physicochemical", "method": "H spectra were measured on Bruker ARX 400 NMR spectrometers using CD3OD as the deuterated solvent. High-resolution mass spectra (HRMS) were recorded on a Finnegan MAT TSQ 7000 Mass Spectrometer System operating in a MALDI-TOF mode. UV absorption spectra were taken on a Milton Ray Spectronic 3000 array spectrophotometer. Steady-state fluorescence spectra were recorded on a Perkin Elmer LS 55 spectrometer. Fluorescence images were collected on Olympus BX 41 fluorescence microscope. Laser confocal scanning microscope images were collected on Zeiss laser scanning confocal microscope (LSM7 DUO) and analyzed using ZEN 2009 software (Carl Zeiss).\nas §4, §3"}, "HeLa cells [8]": {"system": "HeLa cells", "assay": "MTT cytotoxicity in dark conditions (biocompatibility)", "assay_type": "cell-based", "method": "For cytotoxicity studies relating to biocompatibility of the present compounds to Hela cells, MTT assays were used to evaluate the cytotoxicity of the presented AIEgens. Cells were seeded in 96-well plates (Costar, IL, USA) at a density of 6000-8000 cells/well. After overnight culturing, medium in each well were replaced by 100 μL fresh medium containing different concentrations of TTVP. 24 hours later, 10 μL MTT solution (5 mg/mL in PBS) was added into each well. After 4 hours of incubation, 100 μL SDS-HCl aqueous solution (10% SDS and 0.01 M HCl) was added to each well. After incubation for 4 hours, the absorption of each well at 595 nm was recorded via a plate reader (Perkin-Elmer Victor3™). Each trial was performed with 6 wells parallel.\nas §2"}}}
{"molecule": "CCCCCCCCCCCCCCCCCCN1/C(=C\\C=C\\c2oc3ccccc3[n+]2CCCCCCCCCCCCCCCCCC)Oc2ccccc21.[O-][Cl+3]([O-])([O-])[O-]", "note": "[DiO, reference compound]", "values": [{"measurement": "change of emission intensity on irradiation (photostability)", "setting": "HeLa cells [1]", "result": "fluorescence loss of DiO was very obvious"}]}
{"molecule": "C[N+](C)(C)CCC[n+]1ccc(/C=C/c2ccc(-c3ccc(N(c4ccccc4)c4ccccc4)cc3)s2)cc1", "note": "[TTVP]", "values": [{"measurement": "enhancement of H2DCF-DA emission intensity (ROS generation)", "setting": "[2]", "result": 87, "unit": "fold"}, {"measurement": "plasma membrane visualization", "setting": "[3]; 500 nM, 10 min incubation, with or without washing", "result": "clearly visualized with excellent image contrast"}, {"measurement": "plasma membrane staining", "setting": "[3]; 500 nM, shaking a few seconds at room temperature, wash-free", "result": "lit up significantly"}, {"measurement": "cellular localization after long staining", "setting": "[3]; 500 nM, staining for 6 hours", "result": "A majority of TTVP entered the cells"}, {"measurement": "plasma membrane visualization", "setting": "[3]; 500 nM, staining time 4 h", "result": "still be clearly visualized"}, {"measurement": "maximum emission of stained living cells", "setting": "[3]; living HeLa cells stained with TTVP", "result": 623, "unit": "nm"}, {"measurement": "cell death", "setting": "HeLa cells [4]; 1 μM", "result": "almost complete cell death"}, {"measurement": "viability at 0.5 µM", "setting": "HeLa cells [4]; Homo sapiens, HeLa, light or radiation study, 10 min, 500 nM, read-out: cell viability", "result": 15, "unit": "%"}, {"measurement": "average hydrodynamic diameter of nanoaggregates", "setting": "[5]", "result": "around 43 nm"}, {"measurement": "polydispersity index", "setting": "[5]", "result": 0.13}, {"measurement": "water solubility", "setting": "Water solubility", "result": "good water solubility"}, {"measurement": "change of emission intensity on irradiation (photostability)", "setting": "HeLa cells [1]", "result": "slightly decreased"}, {"measurement": "plasma membrane visualization", "setting": "HCT116 cells", "result": "clearly visualized"}, {"measurement": "plasma membrane visualization", "setting": "HCC827 cells", "result": "clearly visualized"}, {"measurement": "plasma membrane visualization", "setting": "293T cells", "result": "clearly visualized"}, {"measurement": "plasma membrane visualization", "setting": "MDCK2 cells", "result": "clearly visualized"}, {"measurement": "cell necrosis on light irradiation", "setting": "HeLa cells [6]", "result": "caused cancer cell necrosis in a short period of time"}, {"measurement": "λem (nm) Aggr, maximum emission in aggregated state", "setting": "[7]; aggregated state, water/THF mixture", "result": 708, "unit": "nm"}, {"measurement": "ε, molar extinction coefficient", "setting": "[7]; aqueous solution, at 515 nm", "result": 33517, "unit": "M⁻¹ cm⁻¹"}, {"measurement": "λabs (nm), absorption maximum", "setting": "[7]; aqueous solutions", "result": 515, "unit": "nm"}, {"measurement": "λem (nm) Solid, emission maximum in solid state", "setting": "[7]; solid state", "result": 705, "unit": "nm"}, {"measurement": "τ, fluorescence lifetime", "setting": "[7]; solid state, ambient conditions", "result": 0.92, "unit": "ns"}, {"measurement": "ΦF, fluorescence quantum yield", "setting": "[7]; solid state, calibrated integrating sphere", "result": 2.7, "unit": "%"}, {"measurement": "cytotoxicity in dark conditions", "setting": "HeLa cells [8]", "result": "low cytotoxicity"}, {"measurement": "cell viability", "setting": "HeLa cells [8]; 1 μM", "result": 90, "unit": "%"}]}
